Test results reported in a melting point compilation (Tetko et al.).
Peptide text beside a SMILES is read from it.

SMILES	melting point [°C]
O=C(Nc1ccccc1)C1Cc2ccccc21 (stereo not given)	161
NC(=O)C1=CNCCC1	203 to 205
CC=C(CC)C(=O)NC(N)=O	198
Cc1ccc(-n2ncc(Cl)c(Cl)c2=O)cc1	144 to 146
COC(=O)c1ccc(Cl)cc1N	67
CCOC(=O)c1cc2c(=O)oc3ccccc3c2n(C)c1=O	202 to 203
O=C1CCC2OCC(c3ccccc3)N12 (stereo not given)	76 to 80
COc1ccc(NN=C2C(=O)NC(=S)NC2=O)cc1	246
CC(C)=CCC(C#N)(CC=C(C)C)C(=O)O	70 to 71
O=C=Nc1cccc2ccccc12	4
Cc1ccc(F)c(C#N)c1	51
OC1CCc2ccccc2C1 (stereo not given)	15.5
FC(F)(F)Oc1ccccc1	-50
CC(=O)Nc1ccc(Br)cc1C(=O)O	223
CCOC(=O)c1sc(Br)nc1C	65 to 66
CCSC(SCC)=C(C#N)c1ccccn1	160 to 162
Sc1nnc(-c2ccco2)n1-c1ccc2c(c1)OCCO2	237 to 240
O=C(O)c1cccc(C(=O)O)c1O	244
O=[N+]([O-])c1ccc(C=Cc2cccc(/C=C\c3ccc([N+](=O)[O-])cc3[N+](=O)[O-])c2)c([N+](=O)[O-])c1	243
OCc1sc(-c2ccccc2)nc1-c1ccccc1	125
O=C(N=C=S)c1ccc([N+](=O)[O-])cc1	90 to 92
CCOC(=O)CSc1c(C)[nH]c2ccccc12	72 to 75
COc1ccc(CCO)cc1OC	46
COC(=O)CC1C(=O)NC(C)=C1C(=O)OC (stereo not given)	93 to 94
CC=CC1=C(C(=O)O)N2C(=O)C(NC(=O)C(N)c3ccc(O)cc3)C2SC1 (stereo not given)	222
Cc1onc2c(-c3ccc(Cl)cc3)nnc(-c3ccccc3)c12	171

SMILES	melting point [°C]
Cc1cc(Cn2nc(C)cc2C)c(O)c(Cn2nc(C)cc2C)c1	125
Cc1nc2ccc(C(=O)O)cc2nc1C	230
BrCCOc1ccc(Br)cc1	56 to 57
COC1=C(Br)C(=O)C2(C)CCC1C2(C)C (stereo not given)	104
COc1ccc(NC(N)=S)c(OC)c1	199 to 201
OCc1cccc2cccc(Br)c12	89 to 90
O=c1c(C2CC(c3ccc(OCc4ccc(C(F)(F)F)cc4)cc3)Cc3ccccc32)c(O)oc2ccccc12 (stereo not given)	92.5
CC(=O)O[C@H]1CCCC2=CC(=O)CC[C@@]21C	89 to 90
S=C(/N=N/c1ccccc1)NNc1ccccc1	168
Clc1cc(Cl)c2c(c1Cl)Oc1c(Cl)cc(Cl)c(Cl)c1O2	238
COC(=O)Cn1ccnc1[N+](=O)[O-]	96
Cc1ccc(Cl)c(Cl)c1Cl	43.5
CNC(N)=O	103
COc1ccccc1C(=O)c1cc2c(cc1Br)OCCO2	95 to 97
CCCCSP(SCCCC)SCCCC	100
O=C(C=Cc1ccccc1O)c1cccc(C(=O)C=Cc2ccccc2O)c1	150
N#Cc1cccc2c1-c1ccccc1C2	77 to 79
CCCCc1ccc(NC(C)=O)cc1	107 to 109
S=c1sc2ccccc2n1CCl	126 to 131
CC(=O)Nc1ccc(S(=O)(=O)NCCO)cc1	126 to 127
O=S(=O)(Cl)c1ccc2c(c1)OCO2	48 to 51
COc1ccccc1OCC(N)=O	142
Cc1cc(OCc2ccccc2)ccc1[N+](=O)[O-]	70
c1ccc(-c2ccc3cc4ccc(-c5ccccc5)nc4cc3n2)cc1	279
O=C(O)c1cc(S(=O)(=O)F)ccc1Cl	148 to 151
CC(=O)Oc1cccc2c1C(=O)c1c(OC(C)=O)cc(C(=O)O)cc1C2=O	218

SMILES	melting point [°C]
CC(=O)O[C@]12CC[C@@H](C(C)(C)C)C[C@H]1O[C@@H]2c1c(F)c(F)c(F)c(F)c1F	83
FC(F)(F)N1C(F)(F)C(F)(F)OC(F)(F)C1(F)F	-80
Cc1c([N+](=O)[O-])cc(N)cc1[N+](=O)[O-]	171
CCOC(=O)CC(=O)c1ccncc1	53 to 59
CC=C(C)C(=O)OC1CCN2CC=C(COC(=O)C(O)(C(C)OC)C(C)(C)O)C12 (stereo not given)	97
Ic1ccc(-n2cccn2)cc1	91 to 92
CCOC(=O)c1ccc(C#N)cc1	54
NS(=O)(=O)c1ccc(F)cc1C(F)(F)F	167
O=Cc1cc(C=O)c(O)c(C=O)c1	179 to 180
O=c1ccc2ccc(O)c(O)c2o1	262
O=[N+]([O-])c1cccc2c1cnn2C1CC(O)C(CO)O1 (stereo not given)	140
COc1ccc(OC)c(C=C[N+](=O)[O-])c1	114 to 119
CC(C)(C)N(NC(=O)c1ccccc1)C(=O)c1ccc(C#N)cc1	200
CSc1nc2ncc(C(=O)O)c(N)n2n1	278 to 281
COc1cccc2oc(-c3ccccc3)cc(=O)c12	130
COc1ccc2nc(-c3ccccc3)cc(Cl)c2c1	121 to 124
CC(=NO)c1ccco1	104 to 105
C=C1C(C)CCC2(C)C3=C(C(=O)C4(CC4C)C(OC(C)=O)C3=O)C(OC(C)=O)C(OC(C)=O)C12 (stereo not given)	173
Cc1cn(C2CCC(CO)O2)c(=O)[nH]c1=O (stereo not given)	156
Nc1c(CN2CCCCCC2)c(=O)oc2ccccc12	153
O=C(Nc1cccc(Cl)c1)OCC#CCCl	75
COc1cccc(C2(O)CCCCC2CN(C)C)c1 (stereo not given)	180
CCc1ccc(-c2ccccc2)cc1	35
CC(C)(Oc1ccc2ccccc2c1)C(=O)O	123 to 124
Ic1cc(I)c(I)c(I)c1I	172
NCCCNC1CCCCC1	-18

SMILES	melting point [°C]
CCOC(=O)CC(=O)OCC	-50
Cn1c(S)nnc1Cc1ccsc1	130 to 133
C[C@@](O)(CC(=O)O)C(=O)O	107 to 111
CCOC(C)=C(C#N)C#N	89 to 93
Cc1nc(C2CCN(C(=O)OC(C)(C)C)CC2)sc1C(=O)O	124 to 128
CCOC(=O)CC(=O)c1ccc([N+](=O)[O-])cc1	72
Cc1cc(Br)c(N)c([N+](=O)[O-])c1	58 to 59
CC(=O)c1c(C)c(C(=O)O)n(C)c1C	135 to 137
CCN(C(=S)Cl)c1ccccc1	56 to 58
CCCCCS(=O)CCCCC	58
O=C(O)Cc1ccc(O)c([N+](=O)[O-])c1	147
N#Cc1ccc(N)c(Br)c1	106 to 111
CCOC(=O)c1ccc([N+](=O)[O-])cc1NC(=O)c1ccccc1	179
O=C(O)c1ccc(C(F)(F)F)cc1F	168
Cn1nc(C(F)(F)F)c(C=O)c1Cl	41 to 42
O=C(O)c1cc(O)[nH]c(=O)c1	300
CC1(C)SC2C(NC(=O)COc3ccccc3)C(=O)N2C1C(=O)O (stereo not given)	124
CC(=O)/N=c1\sc(C(C)=O)nn1-c1ccccc1[N+](=O)[O-]	184
COc1cc(Br)cc(OC)c1OC	78.5
CC(C)NCCCC1(C(N)=O)c2ccccc2-c2ccccc21	94.5
Oc1cc(F)c(F)c(F)c1	54
OCc1cccc(Oc2ccccn2)c1	57 to 59
CCc1ccccc1-n1c(C)nc2ccccc2c1=O	81
Cc1ccc(S(=O)(=O)NCCCC[C@H](N)C(=O)O)cc1	231 to 234
Clc1ncnc2[nH]cnc12	300
O=[N+]([O-])C(Br)C(Br)c1cccc(C(Br)C(Br)[N+](=O)[O-])c1 (stereo not given)	147

SMILES	melting point [°C]
C[Si](C)(C)O[Si](C)(C)O[Si](C)(C)O[Si](C)(C)O[Si](C)(C)O[Si](C)(C)O[Si](C)(C)C	-78
Cc1ccc(S(=O)(=O)n2cc(C=O)c3ccccc32)cc1	138 to 140
O=S(=O)(Cl)Cc1ccc(F)cc1	61 to 63
c1ccc(CC2=NCCN2)cc1	174
CC(=O)c1cccc(S(=O)(=O)Cl)c1	43
COC(=O)C1(S(=O)(=O)c2ccccc2)CC1	74.5
c1ccc(C2=NNCC2)cc1	45.8
O=C(O)c1cccc(CSc2cccs2)c1	108 to 110
CC[C@H](C)[C@H](NC(=O)CN)C(=O)O (H-Gly-Ile-OH)	248
Cc1nn(C)c2sc(C(=O)O)cc12	260
O=[N+]([O-])c1c(N2CCCCC2)cc(Cl)c2nonc12	159 to 161
Brc1nc2ccccc2[nH]1	200
Cc1ccccc1C(N)=S	142 to 143
Cc1csc(N)c1-c1nc2ccccc2s1	111 to 112
C1CCC(C2CCCCC2)CC1	3 to 4
O=C1CCC(=O)N1Br	177
Fc1cc2nsnc2cc1Cl	78
C[P+]([O-])(CCCCN1C(=O)c2ccccc2C1=O)OCCCCN1C(=O)c2ccccc2C1=O (stereo not given)	114
COC(=O)CSCCC(N)=S	78 to 81
NC(=O)/C(=N\Nc1cc(Cl)c(Cl)cc1Cl)c1nc2ccccc2s1	236
Cc1nc(-c2ccccc2)sc1C(=O)NN	168 to 170
NNC(=O)c1csc(-c2ccccc2)n1	137 to 138
O=C(/C=C/c1ccc(OCC2CO2)cc1)c1ccccc1 (stereo not given)	92
O=C(O)C(CCCc1ccccc1)c1ccccc1 (stereo not given)	78
O=[N+]([O-])c1cc(Cl)cc(Cl)c1O	122
Cc1cccc2cccnc12	-80
